These are literature values, as cited in patent US20210290432A1, “KIT FOR PRODUCING KERATOCONJUNCTIVAL COVER SHEET AND METHOD FOR PRODUCING KERATOCONJUNCTIVAL COVER SHEET” (OSAKA UNIVERSITY, priority 2016, published 2021).

On to `O=C(NC(Cc1cc(=O)[nH]c2ccccc12)C(=O)O)c1ccc(Cl)cc1` (stereo not shown) [Rebamipide, rebamipide], for which the solubility in water entry is recorded as “poorly soluble in water”.
